Experimental data reported in patent publication US8026218B2, “Bifunctional analgesic compounds for opioid receptor agonists and neurokinin-1 receptor antagonists” (The University of Arizona, priority 2006, dated 2011).
Like-named read-outs stand apart in the source and are kept apart here. Peptide text beside a SMILES is read from it.

Key:
rat NK1 (rNK1) receptor = molecular target: T1, rat NK1 (rNK1) receptor (Rattus norvegicus, UniProt P14600); experiment: Radioligand competition binding, [3H]substance P, rNK1/CHO membranes
T1 construct: expressed in transfected cells; host or cells: CHO (rNK-1/CHO cell line from Dr. James Krause)
T1 sequence (P14600 whole entry): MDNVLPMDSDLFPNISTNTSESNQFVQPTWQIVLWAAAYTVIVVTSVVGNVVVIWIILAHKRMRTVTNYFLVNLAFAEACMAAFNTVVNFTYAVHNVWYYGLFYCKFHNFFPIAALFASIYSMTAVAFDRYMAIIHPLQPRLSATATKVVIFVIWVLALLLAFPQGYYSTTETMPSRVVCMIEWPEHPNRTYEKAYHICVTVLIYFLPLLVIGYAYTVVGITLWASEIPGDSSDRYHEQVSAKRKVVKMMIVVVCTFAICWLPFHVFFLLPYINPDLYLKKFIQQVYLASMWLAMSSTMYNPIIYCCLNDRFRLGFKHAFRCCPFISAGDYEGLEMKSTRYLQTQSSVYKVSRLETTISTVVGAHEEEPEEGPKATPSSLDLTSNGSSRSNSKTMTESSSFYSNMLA

[1] = molecular target: T2, human NK1 receptor (hNK1) (Homo sapiens, UniProt P25103); experiment: Radioligand competition binding, [3H]-Substance P, hNK1
T2 construct: expressed in transfected cells
T2 sequence (P25103 whole entry): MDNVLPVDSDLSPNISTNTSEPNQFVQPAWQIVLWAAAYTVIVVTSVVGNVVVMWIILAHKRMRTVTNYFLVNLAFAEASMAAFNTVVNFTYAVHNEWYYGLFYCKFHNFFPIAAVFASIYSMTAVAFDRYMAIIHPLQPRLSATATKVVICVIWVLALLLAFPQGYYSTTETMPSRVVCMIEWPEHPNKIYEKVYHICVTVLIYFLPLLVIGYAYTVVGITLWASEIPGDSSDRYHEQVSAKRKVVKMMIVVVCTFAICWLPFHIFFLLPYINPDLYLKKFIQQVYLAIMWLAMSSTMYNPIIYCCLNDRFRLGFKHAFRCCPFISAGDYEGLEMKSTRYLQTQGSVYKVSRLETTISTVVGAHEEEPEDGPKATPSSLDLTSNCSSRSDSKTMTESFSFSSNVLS

[2] = molecular target: T3, Substance P receptors (guinea pig NK1) (Cavia porcellus, UniProt P30547); experiment: Guinea pig isolated ileum (GPI) assay with substance P stimulation in presence of 1 μM naloxone; details: for Kb: Substance P antagonist, GPI, Ke, in the presence of 1 μM naloxone; for activation at 1 µM: read-out: Substance P GPI agonist (A50), contraction relative to initial muscle contraction with KCl
T3 construct: from tissue; host or cells: guinea pig (Hartley) ileum LMMP, 1 μM naloxone present
T3 sequence (P30547 whole entry): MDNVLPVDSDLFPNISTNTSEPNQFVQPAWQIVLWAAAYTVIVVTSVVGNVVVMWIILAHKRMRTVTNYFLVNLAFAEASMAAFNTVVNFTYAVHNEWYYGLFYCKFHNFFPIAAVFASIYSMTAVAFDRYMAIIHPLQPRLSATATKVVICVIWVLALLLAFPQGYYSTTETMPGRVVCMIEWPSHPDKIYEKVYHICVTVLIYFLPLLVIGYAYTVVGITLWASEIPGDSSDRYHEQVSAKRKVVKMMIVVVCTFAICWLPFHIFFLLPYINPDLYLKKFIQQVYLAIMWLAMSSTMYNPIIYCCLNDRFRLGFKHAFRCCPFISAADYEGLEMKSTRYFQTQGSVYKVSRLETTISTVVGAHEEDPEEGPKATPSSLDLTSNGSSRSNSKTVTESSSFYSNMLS
Procedure: Testing stopped at 1 mM concentrations of the test compound.
Analysis of GPI and MVD assays. For opioid data analysis, percentage inhibition was calculated using the average tissue contraction height for 1 min preceding the addition of the agonist divided by the contraction height 3 min after exposure to the dose of agonist. […] IC50 and Emax estimates were determined by computerized nonlinear least-squares analysis (the pharmacological statistics package FlashCalc: Dr. Michael Ossipov, University of Arizona, Tucson, Ariz.). […] A50 values represent the mean of not less than 4 tissues. A50 and Emax estimates were determined by computerized nonlinear least-squares analysis (FlashCalc).

[3] = molecular target: T4, human δ opioid receptors (hDOR) (Homo sapiens, UniProt P41143); experiment: Radioligand competition binding, [3H]DPDPE, hDOR membranes; details: for LogIC50, hDOR, [3H]DPDPE: membranes from transfected HN9.10 cells
T4 construct: expressed in transfected cells; host or cells: HN9.10 neuroblastoma cell line, pCDNA3, neomycin-selected clones
T4 sequence (P41143 whole entry): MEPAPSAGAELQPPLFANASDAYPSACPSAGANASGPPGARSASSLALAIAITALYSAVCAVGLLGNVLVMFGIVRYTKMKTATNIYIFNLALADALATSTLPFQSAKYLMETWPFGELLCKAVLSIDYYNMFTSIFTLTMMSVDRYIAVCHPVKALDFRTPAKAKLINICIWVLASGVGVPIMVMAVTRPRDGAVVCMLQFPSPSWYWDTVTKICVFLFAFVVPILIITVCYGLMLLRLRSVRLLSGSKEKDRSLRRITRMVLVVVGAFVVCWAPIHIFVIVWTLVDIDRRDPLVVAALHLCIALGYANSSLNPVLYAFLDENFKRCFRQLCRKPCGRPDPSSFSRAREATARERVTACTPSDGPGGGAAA

[4] = molecular target: T4, human δ opioid receptors (hDOR); experiment: [35S]GTP-γ-S binding assay, hDOR; format: biochemical
[5] = molecular target: T5, rat μ opioid receptors (rMOR) (Rattus norvegicus, UniProt P33535); experiment: biochemical; format: biochemical; details: Table 39; read-out: GTP binding rMOR Emax
T5 construct: expressed in transfected cells; host or cells: HN9.10 neuroblastoma cell line, pCDNA3, neomycin-selected clones
T5 sequence (P33535 whole entry): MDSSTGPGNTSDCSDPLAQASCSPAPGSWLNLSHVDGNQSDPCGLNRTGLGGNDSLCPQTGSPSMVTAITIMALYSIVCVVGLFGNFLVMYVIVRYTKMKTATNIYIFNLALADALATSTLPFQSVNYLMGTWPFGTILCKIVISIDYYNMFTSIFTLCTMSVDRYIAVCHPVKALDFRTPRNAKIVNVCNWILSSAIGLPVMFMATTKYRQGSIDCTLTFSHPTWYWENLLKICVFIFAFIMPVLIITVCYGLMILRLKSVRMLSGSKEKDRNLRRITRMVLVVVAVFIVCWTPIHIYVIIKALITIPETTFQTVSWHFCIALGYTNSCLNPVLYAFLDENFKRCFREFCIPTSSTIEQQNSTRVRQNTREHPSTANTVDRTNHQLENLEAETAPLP

δ opioid receptors (MVD) = molecular target: T6, δ opioid receptors (MVD) (Mus musculus, UniProt P32300); experiment: Mouse isolated vas deferens (MVD) assay, opioid agonist
T6 construct: from tissue; host or cells: mouse (ICR) isolated vas deferens
T6 sequence (P32300 whole entry): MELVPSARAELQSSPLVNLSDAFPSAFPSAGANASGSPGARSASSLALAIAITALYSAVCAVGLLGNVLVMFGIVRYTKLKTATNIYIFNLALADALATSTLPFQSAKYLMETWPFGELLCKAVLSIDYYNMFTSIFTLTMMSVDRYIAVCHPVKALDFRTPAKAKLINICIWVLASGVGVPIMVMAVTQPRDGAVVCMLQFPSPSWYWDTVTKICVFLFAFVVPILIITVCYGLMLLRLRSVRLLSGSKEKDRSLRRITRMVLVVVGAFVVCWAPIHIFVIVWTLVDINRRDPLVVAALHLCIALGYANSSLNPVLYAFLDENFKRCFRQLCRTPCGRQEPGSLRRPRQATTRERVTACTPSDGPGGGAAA

μ opioid receptors (GPI) = experiment: Guinea pig isolated ileum (GPI) assay, opioid agonist; design: GPI/LMMP Opioid(m) Agonist, % inh.: unit of the concentration uncertain;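 further: inhibition of electrically evoked contractions (0.1 Hz, 0.4 msec, supramaximal voltage) in organ baths at 37 °C, contraction height 3 min after each cumulative dose versus the 1 min before dosing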
[6] = Table 39, read-out: GTP binding hDOR Emax
[7] = LogIC50, rNK1, Substance P radioligand, membranes from transfected CHO cells
[8] = Table 27, read-out: GTP binding hDOR EC50
[9] = Table 27, read-out: GTP binding hDOR Emax (%)
[10] = Table 39, read-out: GTP binding hDOR EC50
[11] = net total bound/basal binding × 100, read-out: Emax, hDOR, [35S]GTP-γ-S binding
[12] = read-out: EC50, hDOR, [35S]GTP-γ-S binding
[13] = Table 39, read-out: MVD opioid(delta) agonist (IC50; nM)
[14] = Table 28, read-out: GPI/LMMP Opioid(m) Agonist (IC50; nM)
[15] = Table 39, read-out: GPI/LMMP opioid(mu) agonist (IC50; nM)
[16] = electrically stimulated isolated tissue, read-out: GPI (μ), IC50
[17] = IC50, rNK1, Substance P radioligand, membranes from transfected CHO cells
[18] = Table 28, read-out: MVD Opioid (d) Agonist (IC50; nM)
[19] = electrically stimulated isolated tissue, read-out: MVD (δ), IC50

Q: With CC(C)C[C@H](NC(=O)[C@@H]1CCCN1C(=O)[C@H](Cc1ccccc1)NC(=O)CNC(=O)[C@@H](C)NC(=O)[C@@H](N)Cc1ccc(O)cc1)C(=O)N[C@@H](Cc1c[nH]c2ccccc12)C(=O)OCc1cc(C(F)(F)F)cc(C(F)(F)F)c1 [TY001, H-Tyr-DAla-Gly-Phe-Pro-Leu-Trp-O-3,5-Bzl(CF3)2] as the molecule, how does the Ki (rat NK1 (rNK1) receptor; Affinity rNK1 (Ki; nM), Table 39) read?
A: 1.56 nM

Q: And the IC50 (rat NK1 (rNK1) receptor; LogIC50, rNK1, [3H]Substance P, Table 6, logarithm of IC50 (negative), CHO cell membranes)?
A: 5.01 nM

Q: And the Ki (rat NK1 (rNK1) receptor; read-out: Ki, rNK1)?
A: 1.6 nM

Q: What about the IC50 [1] of the same molecule?
A: 0.00501 nM

Q: And the Ki [1]?
A: 0.0023 nM

Q: And the “species difference between affinities at rNK1 and hNK1” value ([1]; Ki rNK1 vs Ki hNK1)?
A: 700 fold

Q: And the Kb [2]?
A: 3.6 ± 1.1 nM

Q: For CC(C)C[C@H](NC(=O)[C@@H]1CCCN1C(=O)[C@H](Cc1ccccc1)NC(=O)[C@H](Cc1ccccc1)NC(=O)CNC(=O)[C@@H](C)NC(=O)[C@@H](N)Cc1ccc(O)cc1)C(=O)N[C@@H](Cc1c[nH]c2ccccc12)C(=O)OCc1ccccc1 [TY014] (HELM PEPTIDE1{Y.[dA].G.F.F.P.L.W.[c1ccc(CO[*:1])cc1]}$$$$V2.0; N-terminus assumed), which Ki [3] is on record?
A: 11.5 nM

Q: And the Emax [4, 6]?
A: 137%

Q: And the Emax [5]?
A: 72.3%

Q: Which results are given for CCCC[C@H](NC(=O)[C@H](Cc1ccccc1)NC(=O)CNC(=O)[C@@H](C)NC(=O)[C@@H](N)Cc1ccc(O)cc1)C(=O)N1CCC[C@H]1C(=O)N[C@@H](CC(C)C)C(=O)N[C@@H](Cc1c[nH]c2ccccc12)C(=O)OCc1cc(C(F)(F)F)cc(C(F)(F)F)c1 [TY018, H-Tyr-D-Ala-Gly-Phe-Nle-Pro-Leu-Trp-O-3,5-Bzl(CF3)2]?
A: LogIC50, hDOR, [3H]DPDPE [3]: −8.42 ± 0.15; Ki (rat NK1 (rNK1) receptor; Ki, rNK1, text): 14.8 nM; IC50 (rat NK1 (rNK1) receptor; [7]): 13.5 nM; LogEC50, hDOR, [35S]GTP-γ-S binding [4]: −8.40 ± 0.11; EC50 [4, 8]: 4 nM; Emax [4, 9]: 131%; EC50 [4, 10]: 4 nM; Emax [4, 6]: 131%; Emax [4, 11]: 129%; EC50 [4, 12]: 4 nM; IC50 (δ opioid receptors (MVD)): 16.8 ± 2.4 nM; IC50 (δ opioid receptors (MVD); [13]): 16.8 nM; IC50 (μ opioid receptors (GPI); [14]): 372 nM; IC50 (μ opioid receptors (GPI); [15]): 372 nM; IC50 (μ opioid receptors (GPI); [16]): 372 ± 65 nM; Kb [2]: 7.9 ± 1.9 nM; activation at 1 µM [2]: 0%

Q: What does the source list for CCCC[C@@H](C(=O)N1CCC[C@H]1C(=O)N[C@@H](CC(C)C)C(=O)N[C@@H](Cc1c[nH]c2ccccc12)C(=O)OCc1cc(C(F)(F)F)cc(C(F)(F)F)c1)N(C)C(=O)[C@H](Cc1ccccc1)NC(=O)CNC(=O)[C@@H](C)NC(=O)[C@@H](N)Cc1ccc(O)cc1 [TY019, H-Tyr-D-Ala-Gly-Phe-N-Me-Nle-Pro-Leu-Trp-O-3,5-Bzl(CF3)2]?
A: LogIC50, hDOR, [3H]DPDPE [3]: −6.79 ± 0.13; IC50 (rat NK1 (rNK1) receptor; [17]): 135 nM; IC50 (rat NK1 (rNK1) receptor; [7]): 112 nM; LogEC50, hDOR, [35S]GTP-γ-S binding [4]: −6.44 ± 0.27; EC50 [4, 12]: 364 nM; Emax ([4]; read-out: Emax, hDOR, [35S]GTP-γ-S binding): 316%; EC50 ([4]; read-out: GTP binding hDOR EC50): 364 nM; Emax ([4]; read-out: GTP binding hDOR Emax): 283%; Emax ([4]; read-out: GTP binding hDOR Emax (%)): 283%; IC50 (δ opioid receptors (MVD); [18]): 188 nM; IC50 (δ opioid receptors (MVD); [13]): 188 nM; IC50 (δ opioid receptors (MVD); [19]): 188 ± 21 nM; GPI/LMMP Opioid(m) Agonist, % inh. (μ opioid receptors (GPI); Table 28, at 1 (unit uncertain)): 12% inh. at 1 mM; GPI/LMMP opioid(mu) agonist, % (μ opioid receptors (GPI); Table 39, concentration not given): 11.90%; GPI (μ), effect at single concentration (μ opioid receptors (GPI); at 1 μM): 12% at 1 μM^b; IC50 [2]: 4.6 nM; Kb [2]: 4.6 ± 1.2 nM; GPI/LMMP SP Agonist, % inh. ([2]; Table 28): 2% inh. at 1 mM; GPI/LMMP SP Agonist, % @ 1 uM ([2]; Table 39, @ 1 uM): 1.6%@ 1 uM; activation at 1 µM [2]: 2%

Q: What does the source list for CC(C)C[C@H](NC(=O)[C@@H]1CCCN1C(=O)[C@H](CC[S+](C)[O-])NC(=O)[C@H](Cc1ccccc1)NC(=O)CNC(=O)[C@@H](C)NC(=O)[C@@H](N)Cc1ccc(O)cc1)C(=O)N[C@@H](Cc1c[nH]c2ccccc12)C(=O)OCc1cc(C(F)(F)F)cc(C(F)(F)F)c1 (stereo partly drawn) [TY023, H-Tyr-D-Ala-Gly-Phe-Met(O)-Pro-Leu-Trp-O-3,5-Bzl(CF3)2]?
A: LogIC50, hDOR, [3H]DPDPE [3]: −7.92 ± 0.04; Ki ([3]; read-out: Ki, hDOR, [3H]DPDPE): 4.8 nM; IC50 (rat NK1 (rNK1) receptor; [17]): 54.5 nM; Ki (rat NK1 (rNK1) receptor; Ki, rNK1, text): 54.5 nM; Ki (rat NK1 (rNK1) receptor; Table 39, read-out: Affinity rNK1 (Ki; nM)): 0.2 nM; LogEC50, hDOR, [35S]GTP-γ-S binding [4]: −8.73 ± 0.20; EC50 [4, 8]: 1.8 nM; Emax [4, 9]: 52.8%; EC50 [4, 10]: 1.8 nM; Emax [4, 6]: 52.8%; Emax [4, 11]: 53%; EC50 [4, 12]: 1.8 nM; IC50 (δ opioid receptors (MVD); [18]): 33 nM; IC50 (δ opioid receptors (MVD); [13]): 33 nM; IC50 (δ opioid receptors (MVD); [19]): 33 nM; IC50 (μ opioid receptors (GPI); [14]): 154 nM; IC50 (μ opioid receptors (GPI); [15]): 154 nM; IC50 (μ opioid receptors (GPI); [16]): 154 nM; Kb [2]: 7.8 ± 4 nM

Q: Which Ki [3] does the source give for CSCC[C@H](NC(=O)[C@H](Cc1ccccc1)NC(=O)CNC(=O)[C@@H](C)NC(=O)[C@@H](N)Cc1ccc(O)cc1)C(=O)N1CCC[C@H]1C(=O)N[C@@H](CC(C)C)C(=O)N[C@@H](Cc1c[nH]c2ccccc12)C(=O)OCc1ccccc1 [TY029] here?
A: 1.3 nM

Q: What about the EC50 [4, 10] of the same molecule?
A: 3.4 nM

Q: What about the Emax [4, 6] of the same molecule?
A: 98%

Q: And the Emax [5]?
A: 133%

Q: And the IC50 (δ opioid receptors (MVD))?
A: 7.62 nM

Q: What about the IC50 (μ opioid receptors (GPI); [15]) of the same molecule?
A: 22.2 nM

Q: How did the Ki [3] turn out when CSCC[C@H](NC(=O)[C@H](Cc1ccccc1)NC(=O)CNC(=O)[C@@H](C)NC(=O)[C@@H](N)Cc1ccc(O)cc1)C(=O)N1CCC[C@H]1C(=O)N[C@@H](CC(C)C)C(=O)N[C@@H](Cc1c[nH]c2ccccc12)C(=O)O [TY043] was run?
A: 1.1 nM

Q: And the Emax [4, 6]?
A: 62%

Q: What about the Emax [5] of the same molecule?
A: 36%

Q: What about the IC50 (δ opioid receptors (MVD)) of the same molecule?
A: 8.18 nM

Q: What about the IC50 (μ opioid receptors (GPI); [15]) of the same molecule?
A: 272 nM

Q: And the “GPI/LMMP SP antagonist (Ke; nM)” value ([2]; Table 39)?
A: no shift
